This experiment deals with T1, human EP2 receptor (Homo sapiens, UniProt P43116).
T1 construct: expressed in transfected cells; host or cells: CHO cells
The experiment is described as follows: Experiment of measuring EP2 antagonistic activity using cells expressing prostanoid receptor (cAMP). Format: cell-based. To be noted: CHO cells expressing human EP2 receptor; PGE2 10 nmol/L; cAMP quantified after 1 hour at room temperature; read-out: EP2_IC50. As to the method:
CHO cells on each of which a human EP2 receptor had been expressed were prepared in accordance with the method by Nishigaki et al, (FEBS Letters, vol. 364, pp. 339-341, 1995) and were then cryopreserved in CELLBANKER2 (Nippon Zenyaku Kogyo Co., Ltd.) at a concentration of 1.5×10^7 cells/mL/vial. The CHO cells thus prepared were used in the experiment. The cells were thawed, and were then suspended in an assay medium (D-PBS containing 1 mmol/L IBMX, 2 μmol/L Diclofenac) at a concentration of 5×10^5 cells/mL. PGE2 alone having a final concentration of 10 nmol/L or a solution (10 μL) containing the PGE2 and a test compound was added to the cell suspension (10 μL) to initiate the reaction. After the reaction was performed at room temperature for 1 hour, the amount of cAMP in the cells was quantified in accordance with the method described in cAMP Gs Dynamic kit (CISBIO).
The antagonistic activity (IC50 value) of a test compound was calculated as a percentage of suppression of the reaction at 10 nM, which was a concentration at which a submaximal cAMP production activity was observed when PGE2 alone was employed. In this manner, an IC50 value was determined.

The values that follow come from US12630510B2, “EP2 antagonist” (ONO PHARMACEUTICAL CO., LTD., priority 2019, dated 2026).

T1 sequence (P43116 whole entry): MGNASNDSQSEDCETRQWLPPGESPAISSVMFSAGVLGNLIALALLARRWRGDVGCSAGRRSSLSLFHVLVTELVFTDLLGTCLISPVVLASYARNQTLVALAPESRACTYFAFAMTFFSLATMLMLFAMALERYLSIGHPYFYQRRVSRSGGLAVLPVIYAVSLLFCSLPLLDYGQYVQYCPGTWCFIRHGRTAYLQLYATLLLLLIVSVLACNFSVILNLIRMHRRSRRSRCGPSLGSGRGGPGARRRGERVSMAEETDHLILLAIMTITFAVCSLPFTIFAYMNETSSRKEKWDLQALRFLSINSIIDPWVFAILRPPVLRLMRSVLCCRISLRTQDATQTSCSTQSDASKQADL

`Cc1cc(OCCc2ccccc2)cc(C)c1C(=O)Nc1cc([C@H]2C[C@H]2C(=O)O)ccc1C(F)(F)F` (racemic) [Example 11, rel-(1R,2S)-2-[3-{[2,6-Dimethyl-4-(2-phenylethoxy)benzoyl]amino}-4-(trifluoromethyl)phenyl]cyclopropanecarboxylic acid]: the IC50 turned out to be 2.2 nM.
In the case of `CCC(C)n1c(CCCc2ccccc2)ccc1C(=O)Nc1cc([C@H]2C[C@H]2C(=O)O)ccc1C(F)(F)F` (relative stereo) [Example 1, rel-(1R,2S)-2-[3-({[1-sec-Butyl-5-(3-phenylpropyl)-1H-pyrrole-2-carbonyl]amino)-4-(trifluoromethyl)phenyl]cyclopropanecarboxylic acid] it was less than 0.3 nM; in that of `CC[C@H](C)n1c(CCCc2ccccc2)ccc1C(=O)Nc1cc([C@H]2C[C@H]2C(=O)O)ccc1C(F)(F)F` (relative stereo) [Example 2, rel-(1R,2S)-2-{3-[({1-[(2S)-2-Butanyl]-5-(3-phenylpropyl)-1H-pyrrol-2-yl}carbonyl)amino]-4-(trifluoromethyl)phenyl}cyclopropanecarboxylic acid], 1.6 nM; in that of `CC[C@H](C)n1c(CCCc2ccccc2)ccc1C(=O)Nc1cc(C)cc([C@H]2C[C@H]2C(=O)O)c1` (relative stereo) [Example 2-1, rel-(1R,2S)-2-{3-[({1-[(2S)-2-Butanyl]-5-(3-phenylpropyl)-1H-pyrrol-2-yl}carbonyl)amino]-5-methylphenyl}cyclopropanecarboxylic acid], 5.4 nM.
In the case of `CC[C@H](C)n1c(CCCc2ccccc2)ccc1C(=O)Nc1cc(C)cc([C@@H]2C[C@H]2C(=O)O)c1` (relative stereo) [Example 2-2, rel-(1R,2R)-2-{3-[({1-[(2S)-2-Butanyl]-5-(3-phenylpropyl)-1H-pyrrol-2-yl}carbonyl)amino]-5-methylphenyl}cyclopropanecarboxylic acid] it was 33 nM; in that of `CC(C)n1c(CCCc2ccccc2)ccc1C(=O)Nc1cc([C@@H]2C[C@@H]2C(=O)O)ccc1C(F)(F)F` [Example 3-1, (1S,2R)-2-[3-({[1-Isopropyl-5-(3-phenylpropyl)-1H-pyrrol-2-yl]carbonyl}amino)-4-(trifluoromethyl)phenyl]cyclopropanecarboxylic acid], 2.1 nM.
Take `CC(C)n1c(CCCc2ccccc2)ccc1C(=O)Nc1cc([C@@H]2C[C@H]2C(=O)O)ccc1C(F)(F)F` [Example 3-2, (1R,2R)-2-[3-({[1-Isopropyl-5-(3-phenylpropyl)-1H-pyrrol-2-yl]carbonyl}amino)-4-(trifluoromethyl)phenyl]cyclopropanecarboxylic acid]: the IC50 is 77 nM.
With `CC[C@H](C)n1c(CCCc2ccccc2)ccc1C(=O)Nc1cc([C@H]2C[C@H]2C(=O)O)ccc1OC` [Example 4, (1R,2S)-2-{3-[({1-[(2S)-2-Butanyl]-5-(3-phenylpropyl)-1H-pyrrol-2-yl}carbonyl)amino]-4-methoxyphenyl}cyclopropanecarboxylic acid] the figure was 2.6 nM; with `CC[C@H](C)n1c(CCCc2ccccc2)ccc1C(=O)Nc1cc([C@@H]2C[C@@H]2C(=O)O)ccc1C(F)(F)F` [Example 5, (1S,2R)-2-{3-[({1-[(2S)-2-Butanyl]-5-(3-phenylpropyl)-1H-pyrrol-2-yl}carbonyl)amino]-4-(trifluoromethyl)phenyl}cyclopropanecarboxylic acid], 2.5 nM; with `CC[C@H](C)n1c(CCCc2ccccc2)ccc1C(=O)Nc1cc([C@H]2C[C@H]2C(=O)O)ccc1C(F)(F)F` [Example 6, (1R,2S)-2-{3-[({1-[(2S)-2-Butanyl]-5-(3-phenylpropyl)-1H-pyrrol-2-yl}carbonyl)amino]-4-(trifluoromethyl)phenyl}cyclopropanecarboxylic acid], less than 0.3 nM.
In the case of `CC[C@H](C)n1c(CCCc2ccccc2)ccc1C(=O)Nc1cc([C@H]2C[C@H]2C(=O)O)ccc1Cl` [Example 7, (1R,2S)-2-{3-[({1-[(2S)-2-Butanyl]-5-(3-phenylpropyl)-1H-pyrrol-2-yl}carbonyl)amino]-4-chlorophenyl}cyclopropanecarboxylic acid] it was 0.3 nM; in that of `CC[C@H](C)n1c(CCOCc2ccccc2)ccc1C(=O)Nc1cc([C@H]2C[C@H]2C(=O)O)ccc1C(F)(F)F` [Example 8, (1R,2S)-2-{3-[({5-[2-(Benzyloxy)ethyl]-1-[(2S)-2-butanyl]-1H-pyrrol-2-yl}carbonyl)amino]-4-(trifluoromethyl)phenyl}cyclopropanecarboxylic acid], 0.4 nM.
As for `CC[C@H](C)n1c(CCOc2cc(F)nc(Cl)c2)ccc1C(=O)Nc1cc([C@H]2C[C@H]2C(=O)O)ccc1C(F)(F)F` [Example 10, (1R,2S)-2-[3-{[(1-[(2S)-2-Butanyl]-5-{2-[(2-chloro-6-fluoro-4-pyridinyl)oxy]ethyl}-1H-pyrrol-2-yl)carbonyl]amino}-4-(trifluoromethyl)phenyl]cyclopropanecarboxylic acid], the IC50 was found to be 0.3 nM.
With `Cc1cc(CCCc2ccccc2)cc(C)c1C(=O)Nc1cc([C@H]2C[C@H]2C(=O)O)ccc1C(F)(F)F` [Example 12, (1R,2S)-2-[3-{[2,6-Dimethyl-4-(3-phenylpropyl)benzoyl]amino}-4-(trifluoromethyl)phenyl]cyclopropanecarboxylic acid] the figure was 1 nM; with `Cc1cc(OCCc2ccc(F)cc2F)cc(C)c1C(=O)Nc1cc([C@H]2C[C@H]2C(=O)O)ccc1C(F)(F)F` [Example 13, (1R,2S)-2-[3-({4-[2-(2,4-Difluorophenyl)ethoxy]-2,6-dimethylbenzoyl}amino)-4-(trifluoromethyl)phenyl]cyclopropanecarboxylic acid], 4.7 nM.
In the case of `Cc1cc(OCCc2ccccc2)cc(C)c1C(=O)Nc1cc([C@H]2C[C@H]2C(=O)O)c(Cl)cc1C(F)(F)F` [Example 15, (1R,2S)-2-[2-Chloro-5-{[2,6-dimethyl-4-(2-phenylethoxy)benzoyl]amino}-4-(trifluoromethyl)phenyl]cyclopropanecarboxylic acid] it was less than 0.3 nM; in that of `Cc1cc(OCCc2ccccc2)cc(C)c1C(=O)Nc1cc([C@@H]2C[C@@H]2C(=O)O)ccc1C(F)(F)F` [Example 19, (1S,2R)-2-[3-{[2,6-Dimethyl-4-(2-phenylethoxy)benzoyl]amino}-4-(trifluoromethyl)phenyl]cyclopropanecarboxylic acid], 12 nM.
In the case of `Cc1cc(OCCc2cnn(C)c2)cc(C)c1C(=O)Nc1cc([C@H]2C[C@H]2C(=O)O)ccc1C(F)(F)F` [Example 20, (1R,2S)-2-[3-({2,6-Dimethyl-4-[2-(1-methyl-1H-pyrazol-4-yl)ethoxy]benzoyl}amino)-4-(trifluoromethyl)phenyl]cyclopropanecarboxylic acid] it was 28 nM; in that of `Cc1cc(OCCC2CC2)cc(C)c1C(=O)Nc1cc([C@H]2C[C@H]2C(=O)O)ccc1C(F)(F)F` [Example 20-1, (1R,2S)-2-[3-{[4-(2-Cyclopropylethoxy)-2,6-dimethylbenzoyl]amino}-4-(trifluoromethyl)phenyl]cyclopropanecarboxylic acid], 5 nM.
`Cc1cc(Oc2cncc(Cl)n2)cc(C)c1C(=O)Nc1cc([C@H]2C[C@H]2C(=O)O)ccc1C(F)(F)F` [Example 21, (1R,2S)-2-[3-({4-[(6-Chloro-2-pyrazinyl)oxy]-2,6-dimethylbenzoyl}amino)-4-(trifluoromethyl)phenyl]cyclopropanecarboxylic acid]: the IC50 turned out to be 8.1 nM.
In the case of `Cc1cc(OCCc2ccccc2)cc(C)c1C(=O)Nc1cc(CCC(=O)O)ccc1C(F)(F)F` [Example 24, 3-[3-f{[2,6-Dimethyl-4-(2-phenylethoxy)benzoyl]amino}-4-(trifluoromethyl)phenyl]propanoic acid] it was 5.2 nM; in that of `Cc1cc(OCCc2ccccc2)cc(C)c1C(=O)Nc1cc(C(C)CC(=O)O)ccc1C(F)(F)F` (centres unmarked) [Example 24-1, 3-[3-{[2,6-Dimethyl-4-(2-phenylethoxy)benzoyl]amino}-4-(trifluoromethyl)phenyl]butanoic acid], 20 nM.
With `Cc1cc(OCCc2ccccc2)cc(C)c1C(=O)Nc1cc(CC(C)C(=O)O)ccc1C(F)(F)F` (centres unmarked) [Example 24-2, 3-[3-f{[2,6-Dimethyl-4-(2-phenylethoxy)benzoyl]amino}-4-(trifluoromethyl)phenyl]-2-methylpropanoic acid], the IC50 worked out at 12 nM.
In the case of `Cc1cc(OCCc2ccccc2)cc(C)c1C(=O)Nc1cc([C@H]2CC[C@H]2C(=O)O)ccc1C(F)(F)F` [Example 25, (1R,2S)-2-[3-{[2,6-Dimethyl-4-(2-phenylethoxy)benzoyl]amino}-4-(trifluoromethyl)phenyl]cyclobutanecarboxylic acid] it was 2.2 nM; in that of `Cc1cc(OCCc2ccccc2)cc(C)c1C(=O)Nc1cc([C@H]2C[C@@]2(C)C(=O)O)ccc1C(F)(F)F` [Example 26, (1R,2R)-2-[3-{[2,6-Dimethyl-4-(2-phenylethoxy)benzoyl]amino}-4-(trifluoromethyl)phenyl]-1-methylcyclopropanecarboxylic acid], 27 nM.
With `CC(C)c1cc(OCc2ccccc2)ccc1C(=O)Nc1cc([C@H]2C[C@H]2C(=O)O)ccc1C(F)(F)F` [Example 28, (1R,2S)-2-[3-{[4-(Benzyloxy)-2-isopropylbenzoyl]amino}-4-(trifluoromethyl)phenyl]cyclopropanecarboxylic acid] the figure was 4 nM.
